Test: Water uptake of norfloxacin and its formulations (FIG. 1)
Assay type: physicochemical
Details: depending on manufacturing procedure (wet or dry granulation) and storage temperature and humidity
Source text: The water uptake for norfloxacin and its formulations may reach up to 30% and more depending on the manufacturing procedures (wet or dry granulation), and storage conditions of temperature and humidity (see FIG. 1).

water uptake: ~30%
Structure (SMILES): CCn1cc(C(=O)O)c(=O)c2cc(F)c(N3CCNCC3)cc21 [norfloxacin]

Source: US20040224014A1, “Non-hygroscopic pharmaceutical compositions containing non-hydrated quinoline carboxylic acids” (The Jordanian pharmaceutical manufacturing Co., priority 2003, published 2004)
